Reference: US4716228A, “Condensed 2-substituted thiazole derivatives” (Farmitalia Carlo Erba S.p.A., priority 1985, dated 1987)

Experiments:
histamine H2-receptor = histamine H2-receptor antagonist activity in vitro on the guinea pig right atrium; assay type: cell-based; settings: screening dose 1.10^-5 M
Protocol: The compounds of the invention were assayed for histamine H2 -receptor antagonist activity in vitro on the guinea pig right atrium. Male guinea pigs were killed by a blow on the head and the heart was quickly excised and placed in oxygenated Ringer Locke solution of the following composition (g/l): NaCl 9, KCl 0.42, CaCl2 0.24, NaHCO3 0.5, Glucose 1. Atria were dissected away from the rest of the heart, freed from connective tissue, suspended in 20 ml organ bath containing Ringer Locke solution thermoregulated at 37° C., and carboxygenated with 95% O2 and 5% CO2. Atria spontaneously beating were allowed to adjust to the bath conditions for at least 30 minutes prior to the experiment. Histamine was added to the bath in cumulative fashion starting from 3×10^-7 M till 1×10^-4 M. The histamine-induced increase in atrial rate was allowed to plateau before the next successive concentration was added. After washing and waiting for the recovery of atria rate, compounds were added 5 minutes before repeating the cumulative dose response curve with histamine.
A compound is considered an H2 -receptor antagonist if it is able to shift the dose response curve of histamine to the right of the concentration <1×10^-5 M.

[1] = tested on: duodenal ulcers, induced by cysteamine; test: inhibition of duodenal ulcers induced in rats by cysteamine; assay type: in vivo; settings: po; rat, p.o.; inhibition of ulcer index; read-out: Cysteamine Test ED50
Protocol: The inhibition of duodenal ulcers, induced in rats by cysteamine, was evaluated for the test of compounds as percentage inhibition of ucler index [sum of the lesioned areas per rat (mm^2)] according to the method of Fuji Y. et at, Jap. J. Pharm. 25, 663, 1975.

stress ulcers = test: inhibition of stress ulcers in rats (restraint in water at 23° C. for 4 hours); assay type: in vivo; settings: po, rat, p.o., read-out: Stress Test ED50
Protocol: The anti-ulcerogenic activity of the compounds of the invention is shown also by the fact that they are active in the test of the inhibition of stress ulcers in rats (restraint in water at 23° C. for 4 hours), according to the method of M. Usardi et al. (Prostaglandins, 8, 43, 1974).

gastric secretion = test: gastric anti-secretory activity, pylorus ligature technique; assay type: in vivo, rats; settings: rat, i.d., read-out: Antisecretory activ. test ED50
Protocol: The gastric anti-secretory activity of the compounds of the invention was evaluated in rats by the pylorus ligature technique (H. Shay et al., Gastroenterology 5, 43, 1945).

[2] = tested on: acetyl salicylic acid (ASA) induced gastric ulcers; test: inhibition of acetyl salicylic acid (ASA) induced gastric ulcers in rats; assay type: in vivo; settings: po; rat, p.o.; read-out: ASA Test ED50
Protocol: The activity of these compounds was assessed in rats in anti-ulcer and anti-secretory tests. The anti-ulcerogenic activity of the compounds of the invention is shown, for example, by the fact that they are active in the test of the inhibition of acetyl salicylic acid (ASA) induced gastric ulcers in rats (M. Hemmati et al., Pharmacology, 9, 374, 1973).

Structure (SMILES): CC(C)NC(=O)N1CCc2nc(N=C(N)N)sc2C1 [Example 1, 2-Guanidino-5-isopropylcarbamoyl-4,5,6,7-teteahydrothiazolo-[5,4-c]pyridine]
- Anti-H2 activity test (histamine H2-receptor): active
- ED50 [1]: 0.4 mg/kg
- ED50 (stress ulcers): 2.9 mg/kg
- ED50 (gastric secretion): 0.33 mg/kg
- ED50 [2]: 0.017 mg/kg
